Data set [1] deals with platelets. The experiment in a line: Platelet activation quality control by p-selectin expression. It counts as cell-based, human. The note with it: control blood upon activation by ADP. Here is the method: To test for a thrombic event, blood was collected from 4 donors, the as blood alone or blood treated with hu5C8 alone (240 μg/mL), sCD40L (10 ng/ml) alone or with combined hu5C8/sCD40L was incubated for 20 minutes at room temperature. Each sample was further incubated for 5 minutes with fluorescent labels for platelets and fibrinogen. As a standard quality control, the control blood was tested for platelet activation using p-selection expression. We confirmed that platelets in control blood were not activated but upon activation by ADP, over 90% of platelet was positive for p-selectin.

Another data set has as its system fibrin. The experiment in a line: Vessel-On-Chip blood perfusion, fibrin deposition by fluorescent fibrinogen imaging. It counts as cell-based, human. Here is the method: (§1) A medical grade plastic reservoir was mounted on the chip, then 800 μl of the blood sample was pipetted into the reservoir. The chip was perfused with the blood by withdrawing it at a rate of 60 μl/minute using a syringe pump. The citrated blood was re-calcified 2 minutes after the beginning of each experiment by adding 100 μl/ml of a solution containing 100 mM calcium chloride and 75 mM magnesium chloride to the blood to permit calcium- and magnesium-dependent platelet function and coagulation.
When analyzing the formation of fibrin, 10 μg/ml of fluorescently labeled fibrinogen (Alexa 488, Invitrogen) was also added to the blood. While fluorescent fibrinogen was barely detected as a diffused fluorescence, fibrin deposition on inflamed cells and sparse clots was easily distinguished since fibrin formed filamentous structures produce a signal intensity that is clearly observed above a background threshold.
(§2) Chips perfused with blood samples were immediately imaged via fluorescence microscopy (Olympus IX83, 10X objective UPLFLN10X2, Circa-Flash4.0 CMOS Camera). Each chamber was inspected along its entire length and 5 images (about […]) were captured from the central area of the chamber. Image processing and quantification was performed with an automatic macro compiled in […] and numerical values corresponding to platelet coverage or fibrin florescence were collected and statistically analyzed in Graphpad Prism V7.
(§3) A percentage of signal coverage (or Platelet coverage) was computed from the binary image as the ratio of bright pixels to the total number of pixels in the image. Image processing and quantification was performed with an automatic macro compiled in ImageJ ire order to ensure unbiased signal measurements. Numerical values corresponding to platelet coverage or fibrin fluorescence (signal intensity) were collected and statistically analyzed in Graphpad Prism V7.

Data set [2] deals with thrombin anti-thrombin complex (TAT). The experiment in a line: Thrombin-anti thrombin (TAT) measurement via ELISA in chip effluent. It counts as cell-based, human. The note with it: for TAT increment: Eptifibatide treatment. Here is the method: Thrombin Anti-Thrombin (TAT) levels were analyzed in plasma from blood flowing out of the chip device by removing a sample from the outflow port. Thus TAT levels were evaluated in sample effluents collected from the outflow port of the chip using the Human TAT ELISA Kit (Siemens Healthineers) according to the user manual.
Blood sampled from the Vessel-On-Chip outflow port was analyzed for thrombin anti-thrombin complex (TAT), a factor released upon activation of the coagulation cascade and one of the biomarkers associated with thrombotic events occurring in patients affected with deep vein thrombosis (DVT) or SLE^45,46. TAT is an accepted clinical biomarker for procoagulation^48,49. An enzyme-linked immunosorbent assay (ELISA) was used to quantify the thrombin anti-thrombin complex (TAT).

For data set [3], the system named is platelets. Briefly: Vessel-On-Chip blood perfusion, platelet coverage/aggregation by fluorescence imaging. It counts as cell-based, human. How it is done:
At the start of each experiment, two vials of cells were thawed and expanded for 3 days in EGM-2. Cells were gently detached with 0.05% Trypsin (BD Biosciences, 2-4 minutes incubation at room temperature) and 8×10^6 cells/ml were introduced into the ECM-coated microchannels. After incubating for 30 minutes at 37° C., cell attachment to the bottom surface of the chamber was assessed by microscopy. Then, a second flask of HUVECs was trypsinized and used to seed the upper surface of the microfluidic chamber by introducing the cell suspension, inverting the chip, and incubating at 37° C. for 30 minutes. Each microfluidic chamber was gently flushed with EGM-2 twice in order to remove unbound cells, then chips were incubated overnight at 37° C. The next day, chips were connected to a syringe pump (Chemyx Fusion 200) and perfused with EGM-2 for 3 days (30 μL/hr) to provide continuous supply of fresh media. On day 3, medium was switched to EGM-2 with low serum (1% FBS, no VEGF) to promote cell synchronization overnight. On day 4, chips were used for blood perfusion experiments.
Citrated human blood (Research Blood Components, Cambridge, Mass.) was used within 4 hours of a blood draw in order to minimize pre-analytical effects on platelet function. Before every experiment, each one of the endothelialized channels (i.e. microchannels having an endothelial cell layer) was inspected via light microscopy. Samples showing any sign of discontinuity in the endothelium were discarded.
Platelets were labeled with human CD41-PE antibody (10 μL/ml, Invitrogen) directly added to the blood and incubated at room temperature for 5 minutes.
as §1, §2, §3

In a further data set the test system is re-calcified blood. The experiment in a line: On-chip anticoagulation of outflowing blood through the anticoagulant port. More on the design: species or system human. The note with it: sodium citrate through the anticoagulant port vs chips without anticoagulant port. An excerpt: In one embodiment, the surface area of the vascular compartment of a microfluidic chip used herein is greater in comparison to the original lung-on-a-chip design because the original size was too small for optimal blood component interaction with endothelium. As described herein, a 1 mm wide and 200 μm tall chamber provided an increase in size of the vascular surface area exposed to laminar flow, as compared to an exemplary lung-on-chip. An anticoagulant port, referred to by several names, including but not limited to EDTA input, citrate input, etc., was added near the outflow port of the vascular chamber. Thus two ports (anticoagulant port and vascular outflow i.e. outflow) were linked through a microfluidic channel (dimension of 250 um wide by 100 um height) to allow for perfusion of anticoagulant solution during the experiment. In some embodiments, modifications were made in the […] dimension. The outlet of the chip was connected to a pulling syringe pump with a system of tubing and connectors made of medical grade silicon that excludes any metal components or potential causes of platelet activation. […]

A further data set has as its system ICAM1. The experiment in a line: ICAM1 immunostaining of endothelium on chip. It counts as cell-based, human. The note with it: TNF-α stimulated endothelium compared to the control. How it is done: In some experiment endothelial cells were stimulate with 50 ng/ml of TNF (Sigma) for 6 hours in order to induce vascular inflammation before blood perfusion.
Data set [4] has as its system platelets. Briefly: Hu5C8 mediated thrombosis on-chip, FcγRIIa dependence (platelet coverage, fibrin deposition, TAT). It counts as cell-based, human. An excerpt: Recent studies conducted on humanized mice expressing the human Fcγ receptors (FCGR2A) have shown that this receptor plays a role in thrombosis leading to the IC-mediated toxicity^12,16,21. […] In order to investigate if the IC5c8-induced thrombosis that we observed in our vessel-on-chip system also relies on an Fc-mediated mechanism, we used two different tool molecules: IgG2σ and IV.3 (FIG. 25A). The IgG2σ variant of hu5C8 has an engineered Fc region^48 that eliminates affinity for the FcγRIIa, while the monoclonal antibody IV.3 is a blocking antibody binding to FcγRIIa. […]
Some of the blood samples were treated with IV.3 (1 μg/ml) for 10 minutes to block the FcγRIIa, and then incubated for 20 more minutes with IC5c8. […] We tested 15 donors and all the tested conditions described above were tested in duplicates and analyzed as percentage of platelet coverage based on fluorescence microscopic imaging (FIG. 25B). […]
Blood from several human donors were aliquoted into groups for the following treatments: controls (PBS), sCD40L, combined hu5C8/sCD40L, combined hu5C8 (IgG2σ)/sCD40L combined, and combined hu5C8/sCD40L/IV.3. Each condition was tested with a minimum of 3 donors to a maximum of 15 donors, and all conditions were tested in duplicates and analyzed for platelet coverage (FIG. 25B), fibrin deposition (FIG. 25C), or increased formation of TAT measured in the eluates (FIG. 25D). […]

[5] abbreviates: Eptifibatide 2 ug/ml, endothelium inflamed with TNF-α, n=4.
Where [6] appears, read: Eptifibatide 2 ug/ml, following treatment with sCollagen, n=4.
The mark [7] stands for this setting: Eptifibatide 2 ug/ml, samples treated with TNF-α, n=4.
Setting [8] is: TNF-α 50 ng/ml 6 hours on endothelium, or sCollagen 10 μg/ml in blood, vs control blood.
Setting [9] is: hu5C8 240 μg/mL, sCD40L 10 ng/ml, 4 donors, 60 μl/minute about 10 minutes, vs untreated blood.

Structures can show the parent of a compound that is named as a salt. Positions of bridges follow the written chain, without caps; N, C: chain ends. Non-standard residues stand in square brackets, D forms with d. Residues, ends and D or L forms follow the SMILES beside them. hArg = N=C(N)NCCCC[C@H](N)C(=O)O; Mpa = O=C(O)CCS

`Nc1ncnc2c1ncn2[C@@H]1O[C@H](COP(=O)(O)OP(=O)(O)O)[C@@H](O)[C@H]1O` [ADP]: in the data set on platelets [1], the “platelet positive for p-selectin” value is reported as “over 90%”.
Consider `N=C(N)NCCCC[C@@H]1NC(=O)CCSSC[C@@H](C(N)=O)NC(=O)[C@@H]2CCCN2C(=O)[C@H](Cc2c[nH]c3ccccc23)NC(=O)[C@H](CC(=O)O)NC(=O)CNC1=O` [Eptifibatide] ([Mpa][hArg]GDWPC-NH2; disulfide 1-7), for which the fibrin clot formation result in the data set on fibrin (setting [5]) was “significantly inhibited”. The “inhibitory effect on fibrin clot formation” value with fibrin (setting [6]) was “comparatively modest”. In addition, in the data set on fibrin (setting [7]), the “fibrin signal (image analysis)” value is reported as “a significant amount of fibrin signal was still detectable”. Moreover, the TAT increment entry in data set [2] (TNF-α-induced inflammation) is “did not inhibit”; in data set [2] (sCollagen treatment), “entirely suppressed”. Further, in the data set on platelets [3] (setting [5]), the platelet aggregation result was “significantly inhibited”. Moreover, the “inhibitory effect on platelet aggregation” value with platelets [3] (setting [6]) was “comparatively modest”. For the same compound, in the data set with platelets [3] (setting [7]), the “platelet adhesion (image analysis)” value is listed as “completely inhibited”.
With `O=C(O)CC(O)(CC(=O)O)C(=O)O` [sodium citrate], in the data set on re-calcified blood, the “state of blood collected from the effluent” value is given as “soluble (not clotted) blood”.
As for TNF-α, in the data set with fibrin (setting [8]), the fibrin signal intensity entry was “increased”. In addition, the “expression of ICAM1 in the endothelium” value with ICAM1 was “increased”. For the same compound, in data set [2] (plasma from blood flowing out of the chip, FIG. 22B), the “levels of TAT” value is reported as “significantly increased”. Moreover, the “areas of platelet coverage” value in the data set on platelets [3] (setting [8]) is listed as “increased”.
In the case of “hu5C8 (IgG2σ): IgG2σ variant of hu5C8 with engineered Fc region that eliminates affinity for FcγRIIa”, the “signs of thrombosis in any of the endpoints” value in the data set with platelets [4] (combined with sCD40L (IV.3: combined hu5C8/sCD40L/IV.3)) is given as “did not show signs of thrombosis”. In addition, in the data set on platelets [4] (preformed IC, IV.3 1 μg/ml 10 minutes, 15 donors), the hu5C8-mediated thrombosis entry was “suppressed”.
As for “hu5C8: humanized monoclonal IgG1 antibody against CD40L (anti-CD154)”, the “fibrin deposition on the endothelium” value in the data set on fibrin (setting [9]) is given as “no significant treatment-related effects”. Also, the “platelet aggregate formation on the endothelium” value in the data set with platelets [3] (setting [9]) was “no significant treatment-related effects”.

The values are drawn from patent publication US10852311B2, “Additive channels” (Emulate Inc., priority 2016, dated 2020).
